Results: patent US20110319491A1, “ANHYDROUS DEPIGMENTING COMPOSITIONS COMPRISING, WITHIN THE FATTY PHASE THEREOF, A SOLUBILIZED PHENOLIC COMPOUND AND A RETINOID” (GALDERMA RESEARCH & DEVELOPMENT, priority 2009, published 2011)

How the values were obtained:
Format in all cases: physicochemical
[1] = Stability of rucinol in solvent oils and lipophilic surfactants (HPLC assay); conditions: T0 = 100%
Source text: Assay technique by HPLC against reference substance.
The initial time (T0) is considered as 100%.

[2] = Chemical stability of the formulations (HPLC assay of the active agents); conditions: in composition of Example 3
Description: The chemical stability is measured by assaying the active agents by external calibration in HPLC and the results are expressed as a % of […] relative to the theoretical value.

[3] = Rucinol solubilities in solvents (HPLC)

With `CCCCc1ccc(O)cc1O` [Rucinol, 4-butylresorcinol] the “T + 1 month (% LC)” value ([1]; in Arlamol E, 40° C.) was 94.4 % LC, the “T + 1 month (% LC)” value ([1]; in Arlamol E, RT) was 95 % LC and the “T + 1 month (% LC)” value ([1]; in Cremophor EL, 40° C.) was 96.2 % LC. The “T + 1 month (% LC)” value ([1]; in Cremophor EL, RT) was 96 % LC, the “T + 1 month (% LC)” value ([1]; in Ethanol, 40° C.) was 105 % LC and the “T + 1 month (% LC)” value ([1]; in Ethanol, RT) was 100.4 % LC. For the same molecule, the “T + 1 month (% LC)” value ([1]; in Labrasol, 40° C.) was 100.8 % LC, the “T + 1 month (% LC)” value ([1]; in Labrasol, RT) was 97.8 % LC and the “T + 1 month (% LC)” value ([1]; in Miglyol, 40° C.) was 99.8 % LC. For the same molecule, the “T + 1 month (% LC)” value ([1]; in Miglyol, RT) was 91.2 % LC, the “Chemical stability: rucinol assay, % relative to the theoretical value” ([2]; 4° C., T + 1 M) was 99.4% and the “Chemical stability: rucinol assay, % relative to the theoretical value” ([2]; 4° C., T + 2 M) was 97.4%. For the same molecule, the “Chemical stability: rucinol assay, % relative to the theoretical value” ([2]; 40° C., T + 1 M) was 98.8%, the “Chemical stability: rucinol assay, % relative to the theoretical value” ([2]; 40° C., T + 2 M) was 97.8% and the “Chemical stability: rucinol assay, % relative to the theoretical value” ([2]; RT, T0) was 98.1%. The “Chemical stability: rucinol assay, % relative to the theoretical value” ([2]; RT, T + 1 M) was 100.6%, the “Chemical stability: rucinol assay, % relative to the theoretical value” ([2]; RT, T + 2 M) was 101.6% and the “Max. solubility (% w/w)” value ([3]; in Arlamol E) was 48.2 % w/w. For the same molecule, the “Max. solubility (% w/w)” value ([3]; in Caprylic capric triglycerides) was 47.8 % w/w, the “Max. solubility (% w/w)” value ([3]; in Castor oil) was 46.4 % w/w and the “Max. solubility (% w/w)” value ([3]; in Cremophor EL) was 49.7 % w/w. The “Max. solubility (% w/w)” value ([3]; in Crodamol DA) was 64.1 % w/w, the “Max. solubility (% w/w)” value ([3]; in Ethanol) was greater than 75.5 % w/w and the “Max. solubility (% w/w)” value ([3]; in Glycerol) was 63.8 % w/w. The “Max. solubility (% w/w)” value ([3]; in Labrasol) was 60.9 % w/w, the “Max. solubility (% w/w)” value ([3]; in Lauroglycol) was 52.8 % w/w and the “Max. solubility (% w/w)” value ([3]; in PEG 400) was 61.6 % w/w. For the same molecule, the “Max. solubility (% w/w)” value ([3]; in Propylene glycol) was greater than 67.7 % w/w and the “Solubility of rucinol (in words)” value ([3]; in all the solvents tested) was “very good solubility”.
